Residues, ends and D or L forms follow the SMILES beside them. *: point of attachment. Bz = O=C(c1ccccc1)*
Tests used:
[1] = target: T1, Angiotensin I-converting enzyme (ACE, CD143) (Homo sapiens, UniProt P12821, S362W); experiment: fluorimetric hydrolysis assay (His-Leu product), […] substrate; assay type: cell-based
T1 construct: full-length somatic ACE, CHO cell lysate

[2] = target: T2, Angiotensin I-converting enzyme (ACE, CD143) (Homo sapiens, UniProt P12821); experiment: as above; assay type: cell-based
T2 construct: full-length somatic ACE, CHO cell lysate
T2 sequence (P12821 30-1306): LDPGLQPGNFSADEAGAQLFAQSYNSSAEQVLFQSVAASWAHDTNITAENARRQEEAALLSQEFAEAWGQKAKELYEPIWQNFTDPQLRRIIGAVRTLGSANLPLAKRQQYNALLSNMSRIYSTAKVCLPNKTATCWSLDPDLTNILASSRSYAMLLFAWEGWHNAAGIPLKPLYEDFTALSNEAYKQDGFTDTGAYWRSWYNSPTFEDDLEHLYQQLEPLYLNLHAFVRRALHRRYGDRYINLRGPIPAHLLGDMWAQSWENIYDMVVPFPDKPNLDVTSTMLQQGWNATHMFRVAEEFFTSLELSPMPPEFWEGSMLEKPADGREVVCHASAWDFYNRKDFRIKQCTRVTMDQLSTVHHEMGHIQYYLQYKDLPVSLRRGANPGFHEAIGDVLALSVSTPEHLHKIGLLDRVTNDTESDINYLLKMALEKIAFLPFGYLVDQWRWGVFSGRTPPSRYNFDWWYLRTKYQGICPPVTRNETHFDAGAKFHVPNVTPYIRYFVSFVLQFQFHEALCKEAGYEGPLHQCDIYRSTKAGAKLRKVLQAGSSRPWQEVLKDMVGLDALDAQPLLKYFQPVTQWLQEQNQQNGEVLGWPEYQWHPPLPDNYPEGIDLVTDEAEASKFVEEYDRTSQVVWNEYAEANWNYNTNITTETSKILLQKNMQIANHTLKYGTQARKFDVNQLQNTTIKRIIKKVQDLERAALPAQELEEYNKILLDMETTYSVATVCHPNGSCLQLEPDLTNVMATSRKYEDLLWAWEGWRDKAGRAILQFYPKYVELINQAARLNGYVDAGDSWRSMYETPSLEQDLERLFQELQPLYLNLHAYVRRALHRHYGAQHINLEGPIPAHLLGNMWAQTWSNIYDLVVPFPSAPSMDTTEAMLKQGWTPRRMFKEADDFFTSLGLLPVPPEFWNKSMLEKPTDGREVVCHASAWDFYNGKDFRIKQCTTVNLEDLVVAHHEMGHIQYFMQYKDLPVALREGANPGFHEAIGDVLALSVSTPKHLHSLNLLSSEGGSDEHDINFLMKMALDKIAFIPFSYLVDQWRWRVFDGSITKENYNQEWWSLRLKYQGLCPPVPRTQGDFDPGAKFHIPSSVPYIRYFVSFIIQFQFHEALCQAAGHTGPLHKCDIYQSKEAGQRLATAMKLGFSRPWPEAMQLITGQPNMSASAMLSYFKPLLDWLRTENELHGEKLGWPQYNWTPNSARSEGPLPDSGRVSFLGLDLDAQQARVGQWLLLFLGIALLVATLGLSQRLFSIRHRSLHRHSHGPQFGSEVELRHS

T1 sequence (P12821 30-1306 S362W): as the sequence (P12821 30-1306) above, with S333W counted along it

CC(C)C[C@H](NC(=O)[C@H](Cc1cnc[nH]1)NC(=O)CNC(=O)c1ccccc1)C(=O)O [Hip-His-Leu] (Bz-Gly-His-Leu-OH)
fluorimetric hydrolysis assay (His-Leu product), 5 mM substrate [1]: stably expressing WT and mutant ACE was determined with substrates Hip-His-Leu and Z-Phe-His –Leu
fluorimetric hydrolysis assay (His-Leu product), 5 mM substrate [2]: stably expressing WT and mutant ACE was determined with substrates Hip-His-Leu and Z-Phe-His –Leu
